# Patent publication US20250270223A1, “CRYSTAL OF SUBSTITUTED PIPERAZINE DERIVATIVE AND PREPARATION METHOD THEREFOR” (Kangbaida (Sichuan) Biotechnology Co., Ltd, priority 2022, published 2025)
# Legend:
# [1] = In vivo pharmacokinetic studies (plasma concentration of prototype drug by LC/MS/MS after gavage); settings: ICR male mice fasted overnight, 1 mg/mL suspension in 5% DMSO+30% HP-β-CD, plasma 0-24 h
# Protocol: A proper amount of compound was weighed and 1 mg/mL suspension was prepared using the weighed compound and 5% DMSO+30% HP-β-CD. After ICR male mice fasted overnight, they were administered by gavage and their blood was collected from the jugular venous plexus at different time points of 0, 5 min, 0.25 h, 0.5 h, 1 h, 2 h, 4 h, 8 h, and 24 h. After anticoagulation with EDTA-K2, plasma was separated by centrifugation, and the concentrations of prototype drug in plasma was determined by LC/MS/MS.
# [2] = Stability study (lighting, high-temperature, high-humidity, acceleration, intermediate conditions, long-term tests); format: physicochemical; settings: light 4,500 lx; 60° C.; 25° C. RH 92.5% and 72.5%; 40° C./75% RH; 30° C./65% RH; 25° C./60% RH
# Description: A proper amount of compound was weighed and placed in a suitable white transparent open container (such as a weighing bottle or petri dish), the container was placed in a lighting stability test chamber for drugs at an illumination of 4,500 lx±500 lx. The samples were taken for testing 5, 10, and 30 days after the placement.
# A proper amount of compound was weighed and placed in a suitable open container (such as a weighing bottle or culture dish), the container was placed in an electric heated air-drying oven at 60° C. The samples were taken for testing 5, 10, and 30 days after the placement.
# A proper amount of compound was weighed and placed in suitable open container (such as a weighing bottle or petri dish), the container was placed in a KNO3 saturated solution desiccator at a temperature of 25° C.±2° C. and a relative humidity of 92.5% and 72.5% respectively. The samples were taken for testing 5, 10, and 30 days after the placement.
# After packaging an appropriate amount of the compound with inner packaging (pharmaceutical low-density polyethylene film, bag) and outer packaging (polyester/aluminum/polyethylene pharmaceutical composite film, bag), the compound was tested at a temperature of 40° C.±2° C. and a relative humidity of 75%±5%. […]
smiles,measurement,setting,value
"C[C@@H](COCc1cc2n(n1)CCN(c1ncc(C(F)(F)F)cn1)C2)Nc1cn[nH]c(=O)c1C(F)(F)F [crystalline form A, (S)-4-(Trifluoromethyl)-5-((1-((5-(5-(trifluoromethyl)pyrimidin-2-yl)-4,5,6,7-tetrahydropyrazolo[1,5-a]pyrazin-2-yl)methoxy)propan-2-yl)amino)pyridazin-3(2H)-one]",pharmacokinetic properties,[1],good pharmacokinetic properties
same,physical and chemical stability,[2],good physical and chemical stability
